Patent publication US20260262643A1, “HERBICIDAL BENZOXAZINES” (FMC CORPORATION, priority 2022, published 2026)

Assays:
ryegrass, Italian [1] = experiment: Test A postemergence; assay type: in vivo, Lolium multiflorum; conditions: 1000 g ai/ha, Postemergence; 0 to 100 scale
Method in brief: (§1)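 Visual injury ratings on a 0–100 scale (100 = complete control) versus untreated controls, taken 10 days after treatment in greenhouse. Preemergence: directed soil spray onto seeded loam/sand. Postemergence: foliar application at one- to two-leaf stage, plants 2–10 cm. Formulation: non-phytotoxic solvent plus surfactant.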

horseweed = experiment: Test A postemergence; assay type: in vivo, Erigeron canadensis; conditions: 1000 g ai/ha, Postemergence; 0 to 100 scale
Method in brief: as §1

barnyardgrass [2] = experiment: Test A postemergence; assay type: in vivo, Echinochloa crusgalli; conditions: 1000 g ai/ha, Postemergence; 0 to 100 scale
From the text: (§2) Seeds of plant species selected from barnyardgrass (Echinochloa crusgalli), blackgrass (Alopecurus myosuroides), corn (Zea mays), foxtail, giant (giant foxtail, Setaria faberi), goosegrass (Eleusine indica), kochia (Bassia scoparia), oat, wild (wild oat, Avena fatua), pigweed, palmer (palmer amaranth, palmer pigweed, Amaranthus palmeri), Pigweed, Redroot (redroot pigweed, Amaranthus retroflexus), ragweed (common ragweed, Ambrosia artemisiifolia), ryegrass, Italian (italian ryegrass, Lolium multiflorum), soybean (Glycine max), and wheat (Triticum aestivum) were planted into a blend of loam soil and sand and treated preemergence with a directed soil spray using test chemicals formulated in a non-phytotoxic solvent mixture which included a surfactant. At the same time, plants selected from these crops and weed species and also galium (catchweed bedstraw, Galium aparine) and horseweed (Erigeron canadensis) were planted in pots containing the same blend of loam soil and sand and treated with postemergence applications of test chemicals formulated in the same manner. Plants ranged in height from 2 to 10 cm and were in the one- to two-leaf stage for the postemergence treatment. Treated plants and untreated controls were maintained in a greenhouse for 10 days, after which time all treated plants were compared to untreated controls and visually evaluated for injury. Plant response ratings, summarized in Table A, are based on a 0 to 100 scale where 0 is no effect and 100 is complete control. A dash (-) response means no test result.

ragweed [3] = experiment: Test A preemergence; assay type: in vivo, Ambrosia artemisiifolia; conditions: 1000 g ai/ha, 0 to 100 scale (0 no effect, 100 complete control), 10 days
Method in brief: as §1

pigweed, palmer [4] = experiment: Test A preemergence; assay type: in vivo, Amaranthus palmeri; conditions: 1000 g ai/ha, 0 to 100 scale (0 no effect, 100 complete control), 10 days
Method in brief: as §1

galium = experiment: Test A postemergence; assay type: in vivo, Galium aparine; conditions: 1000 g ai/ha, Postemergence; 0 to 100 scale
Method in brief: as §1

pigweed, palmer [5] = experiment: Test A postemergence; assay type: in vivo, Amaranthus palmeri; conditions: 1000 g ai/ha, Postemergence; 0 to 100 scale
Method in brief: as §1

ryegrass, Italian [6] = experiment: Test A preemergence; assay type: in vivo, Lolium multiflorum; conditions: 1000 g ai/ha, 0 to 100 scale (0 no effect, 100 complete control), 10 days
Method in brief: as §1

foxtail, giant [7] = experiment: Test A preemergence; assay type: in vivo, Setaria faberi; conditions: 1000 g ai/ha, 0 to 100 scale (0 no effect, 100 complete control), 10 days
Method in brief: as §1

barnyardgrass [8] = experiment: Test A preemergence; assay type: in vivo, Echinochloa crusgalli; conditions: 1000 g ai/ha, 0 to 100 scale (0 no effect, 100 complete control), 10 days
From the text: as §2

kochia [9] = experiment: Test A preemergence; assay type: in vivo, Bassia scoparia; conditions: 1000 g ai/ha, 0 to 100 scale (0 no effect, 100 complete control), 10 days
Method in brief: as §1

ragweed [10] = experiment: Test A postemergence; assay type: in vivo, Ambrosia artemisiifolia; conditions: 1000 g ai/ha, Postemergence; 0 to 100 scale
Method in brief: as §1

kochia [11] = experiment: Test A postemergence; assay type: in vivo, Bassia scoparia; conditions: 1000 g ai/ha, Postemergence; 0 to 100 scale
Method in brief: as §1

foxtail, giant [12] = experiment: Test A postemergence; assay type: in vivo, Setaria faberi; conditions: 1000 g ai/ha, Postemergence; 0 to 100 scale
Method in brief: as §1

blackgrass [13] = experiment: Test A postemergence; assay type: in vivo, Alopecurus myosuroides; conditions: 1000 g ai/ha, Postemergence; 0 to 100 scale
Method in brief: as §1

blackgrass [14] = experiment: Test A preemergence; assay type: in vivo, Alopecurus myosuroides; conditions: 1000 g ai/ha, 0 to 100 scale (0 no effect, 100 complete control), 10 days
Method in brief: as §1

Row | Structure (SMILES) | Plant response rating, Ryegrass, Italian (ryegrass, Italian [1]) | Plant response rating, Horseweed (horseweed) | Plant response rating, Barnyardgrass (barnyardgrass [2]) | Plant response rating, Ragweed (ragweed [3]) | Plant response rating, Pigweed, Palmer (pigweed, palmer [4]) | Plant response rating, Galium (galium) | Plant response rating, Pigweed, Palmer (pigweed, palmer [5]) | Plant response rating, Ryegrass, Italian (ryegrass, Italian [6]) | Plant response rating, Foxtail, Giant (foxtail, giant [7]) | Plant response rating, Barnyardgrass (barnyardgrass [8]) | Plant response rating, Kochia (kochia [9]) | Plant response rating, Ragweed (ragweed [10]) | Plant response rating, Kochia (kochia [11]) | Plant response rating, Foxtail, Giant (foxtail, giant [12]) | Plant response rating, Blackgrass (blackgrass [13]) | Plant response rating, Blackgrass (blackgrass [14])
1 | Cc1cccc2c1O[C@@H](C)CN2C(=O)c1cccc(-n2cc(Cl)cn2)c1 [Compound 132] | 0 | 0 | 0 | 0 | 0 | 0 | 0 | 0 | 0 | 10 | 0 | 0 | 20 | 10 | 0 | 0
2 | CCOC(=O)c1cnn(-c2cccc(C(=O)N3C[C@H](C)Oc4c(C)cccc43)c2)c1 [Compound 133] | 60 | 0 | 20 | 30 | 40 | 60 | 30 | 70 | 80 | 60 | 0 | 40 | 40 | 30 | 0 | 0
3 | Cc1cccc2c1O[C@@H](C)CN2C(=O)c1cccc(-n2cc(C#N)cn2)c1 [Compound 134] | 20 | 0 | 10 | 50 | 90 | 20 | 30 | 80 | 70 | 30 | 20 | 0 | 50 | 50 | 0 | 40
